# Tests used:
# human orexin-2 receptor = human orexin-2 receptor (Homo sapiens (Human), UniProt O43614); experiment: FLIPR Ca2+ Flux Assay, orexin-2 receptor; format: cell-based; conditions: CHO cells, agonist 70 pM Ala-6,12 human orexin-A; read-out: hOX2R FLIPR IC50
# Protocol: The utility of the compounds in accordance with the present invention as orexin receptor OX1R and/or OX2R antagonists may be readily determined without undue experimentation by methodology well known in the art, including the “FLIPR Ca^2+ Flux Assay” (Okumura et al., Biochem. Biophys. Res. Comm. 280:976-981, 2001). In a typical experiment the OX1 and OX2 receptor antagonistic activity of the compounds of the present invention was determined in accordance with the following experimental method. For intracellular calcium measurements, Chinese hamster ovary (CHO) cells expressing the rat orexin-1 receptor or the human orexin-2 receptor, are grown in Iscove's modified DMEM containing 2 mM L-glutamine, […], 1% hypoxanthine-thymidine supplement, 100 U/ml penicillin, 100 μg/ml streptomycin and 10% heat-inactivated fetal calf serum (FCS). The cells are seeded at 20,000 cells/well into Becton-Dickinson black 384-well clear bottom sterile plates coated with poly-D-lysine. All reagents were from GIBCO-Invitrogen Corp. The seeded plates are incubated overnight at 37° C. and 5% CO2. Ala-6,12 human orexin-A as the agonist is prepared as a 1 mM stock solution in 1% bovine serum albumin (BSA) and diluted in assay buffer (HBSS containing 20 mM HEPES, 0.1% BSA and 2.5 mM probenecid, pH7.4) for use in the assay at a final concentration of 70 pM. Test compounds are prepared as 10 mM stock solution in DMSO, then diluted in 384-well plates, first in DMSO, then assay buffer. On the day of the assay, cells are washed 3 times with 100 μl assay buffer and then incubated for 60 min (37° C., 5% CO2) in 60 μl assay buffer containing 1 μM Fluo-4AM ester, 0.02% pluronic acid, and 1% BSA. The dye loading solution is then aspirated and cells are washed 3 times with 100 μl assay buffer. 30 μl of that same buffer is left in each well. Within the Fluorescent Imaging Plate Reader (FLIPR, Molecular Devices), test compounds are added to the plate in a volume of 25 μl, incubated for 5 min and finally 25 μl of agonist is added. Fluorescence is measured for each well at 1 second intervals for 5 minutes and the height of each fluorescence peak is compared to the height of the fluorescence peak induced by 70 pM Ala-6,12 orexin-A with buffer in place of antagonist. For each antagonist, IC50 value (the concentration of compound needed to inhibit 50% of the agonist response) is determined. Alternatively, compound potency can be assessed by a radioligand binding assay (described in Bergman et. al. Bioorg. Med. Chem. Lett. 2008, 18, 1425-1430) in which the inhibition constant (Ki) is determined in membranes prepared from CHO cells expressing either the OX1 or OX2 receptor. The intrinsic orexin receptor antagonist activity of a compound which may be used in the present invention may be determined by these assays.
# hOX1R = hOX1R (Homo sapiens, UniProt O43613); experiment: FLIPR Ca2+ Flux Assay, orexin-1 receptor; format: cell-based; conditions: CHO cells, agonist 70 pM Ala-6,12 human orexin-A
# human orexin-2 receptor, sequence (O43614 whole entry): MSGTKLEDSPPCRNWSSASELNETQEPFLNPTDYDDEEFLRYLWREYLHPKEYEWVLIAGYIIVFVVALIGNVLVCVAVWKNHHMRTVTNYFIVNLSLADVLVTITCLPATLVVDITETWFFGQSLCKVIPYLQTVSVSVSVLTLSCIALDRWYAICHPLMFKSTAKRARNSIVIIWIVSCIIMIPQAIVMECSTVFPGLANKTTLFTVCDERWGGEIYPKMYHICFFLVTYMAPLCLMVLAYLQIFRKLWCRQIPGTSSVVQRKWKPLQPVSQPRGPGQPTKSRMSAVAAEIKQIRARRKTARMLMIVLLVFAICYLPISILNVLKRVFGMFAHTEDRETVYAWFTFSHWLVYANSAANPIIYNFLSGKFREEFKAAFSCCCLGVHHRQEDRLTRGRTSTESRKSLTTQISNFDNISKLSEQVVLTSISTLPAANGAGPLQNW
SMILES,IC50 (human orexin-2 receptor) [nM],IC50 (hOX1R) [nM]
"C[C@@H]1CC[C@@H](Sc2cc(C#N)ccn2)CN1C(=O)c1c(F)cccc1-n1nccn1 [Example 16, 2-{[(3R,6R)-1-{[2-fluoro-6-(2H-1,2,3-triazol-2-yl)phenyl]carbonyl}-6-methylpiperidin-3-yl]sulfanyl}pyridine-4-carbonitrile]",51.4,2350
"C[C@@H]1CC[C@@H](Sc2cc(C#N)ccn2)CN1C(=O)c1ccc(Cl)cc1-n1nccn1 [Example 20, 2-{[(3R,6R)-1-{[4-chloro-2-(2H-1,2,3-triazol-2-yl)phenyl]carbonyl}-6-methylpiperidin-3-yl]sulfanyl}pyridine-4-carbonitrile]",15.5,1030
"COC(=O)c1cccnc1S[C@@H]1CC[C@@H](C)N(C(=O)c2ccccc2-n2nccn2)C1 [Example 3, methyl 2-{[(3R,6R)-6-methyl-1-{[2-(2H-1,2,3-triazol-2-yl)phenyl]carbonyl}piperidin-3-yl]sulfanyl}pyridine-3-carboxylate]",23.9,48.1
"COc1ccc(C(=O)N2C[C@H](Sc3cc(C#N)ccn3)CC[C@H]2C)c(-c2ncccn2)n1 [Example 43, 2-({(3R,6R)-1-[(6-methoxy-2-pyrimidin-2-ylpyridin-3-yl)carbonyl]-6-methylpiperidin-3-yl}sulfanyl)pyridine-4-carbonitrile]",864,10000
"C[C@@H]1CC[C@@H](Sc2cc(C#N)ccn2)CN1C(=O)c1cc(Br)ccc1-n1nccn1 [Example 24, 2-{[(3R,6R)-1-{[5-bromo-2-(2H-1,2,3-triazol-2-yl)phenyl]carbonyl}-6-methylpiperidin-3-yl]sulfanyl}pyridine-4-carbonitrile]",14.9,489
"COc1ccc(C(=O)N2C[C@H](Sc3cc(C#N)ccn3)CC[C@H]2C)c(-n2nccn2)c1 [Example 23, 2-{[(3R,6R)-1-{[4-methoxy-2-(2H-1,2,3-triazol-2-yl)phenyl]carbonyl}-6-methylpiperidin-3-yl]sulfanyl}pyridine-4-carbonitrile]",224,7820
"C[C@@H]1CC[C@@H](Sc2cc(C#N)ccn2)CN1C(=O)c1cc(Cl)ccc1-n1nccn1 [Example 25, 2-{[(3R,6R)-1-{[5-chloro-2-(2H-1,2,3-triazol-2-yl)phenyl]carbonyl}-6-methylpiperidin-3-yl]sulfanyl}pyridine-4-carbonitrile]",214,4860
"C[C@@H]1CC[C@@H](Sc2cc(C#N)ccn2)CN1C(=O)c1ccsc1-n1nccn1 [Example 44, 2-{[(3R,6R)-6-Methyl-1-{[2-(2H-1,2,3-triazol-2-yl)thiophen-3-yl]carbonyl}piperidin-3-yl]sulfanyl}pyridine-4-carbonitrile]",18.8,3920
"Cc1ccc(C(=O)N2C[C@H](Sc3cc(C#N)ccn3)CC[C@H]2C)c(-n2nccn2)c1 [Example 22, 2-{[(3R,6R)-6-methyl-1-{[4-methyl-2-(2H-1,2,3-triazol-2-yl)phenyl]carbonyl}piperidin-3-yl]sulfanyl}pyridine-4-carbonitrile]",49,1500
"COC(=O)c1c(OC)ccnc1S[C@@H]1CC[C@@H](C)N(C(=O)c2ccccc2-n2nccn2)C1 [Example 49, Methyl 4-methoxy-2-{[(3R,6R)-6-methyl-1-{[2-(2H-1,2,3-triazol-2-yl)phenyl]carbonyl}piperidin-3-yl]sulfanyl}pyridine-3-carboxylate]",11.1,73.2
"C[C@@H]1CC[C@@H](Sc2cc(C#N)ccn2)CN1C(=O)c1cccc(F)c1-n1nccn1 [Example 19, 2-{[(3R,6R)-1-{[3-fluoro-2-(2H-1,2,3-triazol-2-yl)phenyl]carbonyl}-6-methylpiperidin-3-yl]sulfanyl}pyridine-4-carbonitrile]",20.8,2550
"C[C@@H]1CC[C@@H](Sc2cc(C#N)ccn2)CN1C(=O)c1cccnc1-c1ccccc1 [Example 32, 2-({(3R,6R)-6-methyl-1-[(2-phenylpyridin-3-yl)carbonyl]piperidin-3-yl}sulfanyl)pyridine-4-carbonitrile]",71.9,10000
"C[C@@H]1CC[C@@H](Sc2cc(C#N)ccn2)CN1C(=O)c1ccccc1-c1ncccn1 [Example 41, 2-({(3R,6R)-6-methyl-1-[(2-pyrimidin-2-ylphenyl)carbonyl]piperidin-3-yl}sulfanyl)pyridine-4-carbonitrile]",18.9,1580
"C[C@@H]1CC[C@@H](Sc2cc(C#N)ccn2)CN1C(=O)c1ccccc1C1CCCCO1 (stereo partly drawn) [Example 38, 2-{[(3R,6R)-6-methyl-1-{[2-(tetrahydro-2H-pyran-2-yl)phenyl]carbonyl}piperidin-3-yl]sulfanyl}pyridine-4-carbonitrile]",36.6,10000
"Cc1ccnc(S[C@@H]2CC[C@@H](C)N(C(=O)c3ccccc3-n3nccn3)C2)c1 [Example 11, 4-methyl-2-{[(3R,6R)-6-methyl-1-{[2-(2H-1,2,3-triazol-2-yl)phenyl]carbonyl}piperidin-3-yl]sulfanyl}pyridine]",20,440
"Cc1ccnc(S[C@@H]2CC[C@@H](C)N(C(=O)c3ccccc3-n3nccn3)C2)c1C#N [Example 10, 4-methyl-2-{[(3R,6R)-6-methyl-1-{[2-(2H-1,2,3-triazol-2-yl)phenyl]carbonyl}piperidin-3-yl]sulfanyl}pyridine-3-carbonitrile]",24.2,634
"C[C@@H]1CC[C@@H](Sc2cc(C#N)ccn2)CN1C(=O)c1ccsc1-c1ncccn1 [Example 40, 2-({(3R,6R)-6-Methyl-1-[(2-pyrimidin-2-ylthiophen-3-yl)carbonyl]piperidin-3-yl}sulfanyl)pyridine-4-carbonitrile]",19,2240
"C[C@@H]1CC[C@@H](Sc2cc(C#N)ccn2)CN1C(=O)c1ccccc1-c1cnn(C)c1 [Example 31, 2-{[(3R,6R)-6-methyl-1-{[2-(1-methyl-1H-pyrazol-4-yl)phenyl]carbonyl}piperidin-3-yl]sulfanyl}pyridine-4-carbonitrile]",30.3,3190
"C[C@@H]1CC[C@@H](Sc2cc(C#N)ccn2)CN1C(=O)c1ccc(F)cc1-n1nccn1 [Example 21, 2-{[(3R,6R)-1-{[4-fluoro-2-(2H-1,2,3-triazol-2-yl)phenyl]carbonyl}-6-methylpiperidin-3-yl]sulfanyl}pyridine-4-carbonitrile]",26.1,2720
"C[C@@H]1CC[C@@H](Sc2cc(C#N)ccn2)CN1C(=O)c1sccc1-c1ncccn1 [Example 42, 2-({(3R,6R)-6-methyl-1-[(3-pyrimidin-2-ylthiophen-2-yl)carbonyl]piperidin-3-yl}sulfanyl)pyridine-4-carbonitrile]",5.3,3560
"CC(C)Oc1ccccc1C(=O)N1C[C@H](Sc2cc(C#N)ccn2)CC[C@H]1C [Example 33, 2-{[(3R,6R)-6-methyl-1-{[2-(1-methylethoxy)phenyl]carbonyl}piperidin-3-yl]sulfanyl}pyridine-4-carbonitrile]",29.4,6840
"C[C@@H]1CC[C@@H](Sc2cc(C#N)ccn2)CN1C(=O)c1ccccc1N1CCCC1 [Example 39, 2-({(3R,6R)-6-methyl-1-[(2-pyrrolidin-1-ylphenyl)carbonyl]piperidin-3-yl}sulfanyl)pyridine-4-carbonitrile]",103,10000
"C[C@@H]1CC[C@@H](Sc2ccccn2)CN1C(=O)c1ccccc1-n1nccn1 [Example 7, 2-{[(3R,6R)-6-methyl-1-{[2-(2H-1,2,3-triazol-2-yl)phenyl]carbonyl}piperidin-3-yl]sulfanyl}pyridine]",179,1630
"C[C@@H]1CC[C@@H](Sc2ccc(C(F)(F)F)cn2)CN1C(=O)c1ccccc1-n1nccn1 [Example 8, 2-{[(3R,6R)-6-methyl-1-{[2-(2H-1,2,3-triazol-2-yl)phenyl]carbonyl}piperidin-3-yl]sulfanyl}-5-(trifluoromethyl)pyridine]",322,596

# Source: US9617246B2, “Thioether-piperidinyl orexin receptor antagonists” (MERCK SHARP & DOHME CORP., priority 2013, dated 2017)
